The values that follow come from US5780250A, “Immunoassay standards for polyaromatic hydrocarbon detection” (Strategic Diagnostics, Inc., priority 1996, dated 1998).

Series [1] concerns rabbit anti-PAH antisera (anti-analyte antibody on paramagnetic particles). Particulars: for 50% B/Bo: concentration giving mean absorbance 0.5 times that of the Diluent/Zero Standard, competitive immunoassay, 450 nm; for LDD (least detectable dose): estimated as the dose needed to generate a B/Bo of 90%.
Series [2] is described as follows: Study of Standard Stability (B/Bo as a function of time of storage). Particulars: after 200 days of storage at 4° C. (FIG. 2).
Protocol: The vials were then capped with Teflon coated caps and crimped. The vials were then separated into five groups. Each group was then placed at a different temperature (-20° C., 2°-8° C., 20°-25° C., 37° C. and 50° C.) in an upright position. Standards were tested for B/Bo at specified intervals by assaying each standard level in duplicate for each temperature. The results were then graphed as a function of time (x) versus B/Bo(y) by temperature level.

For `c1ccc2cc3c(ccc4ccccc43)cc2c1` [1,2 benzoanthracene], in series [1], the “50% B/Bo” value is given as 28.4 ppb and the “LDD (least detectable dose)” value was 0.77 ppb.
Taken in the same sequence, the figures for `c1ccc2cc3ccccc3cc2c1` [anthracene] were 11.0 ppb and 0.54 ppb.
With `c1cc2ccc3cccc4ccc(c1)c2c34` [pyrene], in series [1], the “50% B/Bo” value came to 7.7 ppb and the “LDD (least detectable dose)” value is listed as 0.20 ppb.
Taken in the same sequence, the figures for `c1ccc2c(c1)-c1cccc3cccc-2c13` [fluoranthene] were 4.7 ppb and 0.32 ppb.
Taken in the same sequence, the figures for `c1ccc2c(c1)Cc1ccccc1-2` [fluorene] were 35.2 ppb and 1.65 ppb.
With `c1ccc2c(c1)-c1cccc3c1c-2cc1ccccc13` [benzo(b)fluoranthene], in series [1], the “50% B/Bo” value is recorded as 54.2 ppb and the “LDD (least detectable dose)” value was 0.91 ppb.
With `c1ccc2c(c1)ccc1ccccc12` [phenanthrene, reference compound], the “apparent increase in B/Bo on storage” value in series [2] turned out to be 25%. In series [1], the “50% B/Bo” value was determined as 16.5 ppb and the “LDD (least detectable dose)” value is listed as 0.70 ppb.
`c1ccc2c(c1)cc1ccc3cccc4ccc2c1c34` [benzo(a)pyrene]: in series [1], the “50% B/Bo” value is 6.9 ppb and the “LDD (least detectable dose)” value is listed as 0.50 ppb.
Taken in the same sequence, the figures for `c1ccc2c(c1)ccc1c3ccccc3ccc21` [chrysene] were 7.8 ppb and 0.40 ppb.
For `c1ccc2cc3c(cc2c1)-c1cccc2cccc-3c12` [benzo(k)fluoranthene], in series [1], the “50% B/Bo” value is reported as 524 ppb and the “LDD (least detectable dose)” value was 0.77 ppb.
Taken in the same sequence, the figures for `c1ccc2c(c1)-c1ccc3ccc4cccc5cc-2c1c3c45` [indeno(1,2,3-c,d)pyrene] were 27.2 ppb and 0.78 ppb.
